Active and inactive are the calls of the source.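 Rule for the calls: active = compounds giving half or more protection of infected cells from virus-caused growth loss, again on retest; inactive = the rest.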 Where a SMILES comes first, the peptide text is derived from it.

This assay concerns CEM cells HIV-1 protection, formazan growth assay. Description: NCI AIDS Antiviral Assay. Conditions: for IC50: measured here: growth of uninfected CEM cells. In outline: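 Protection of CEM cells against HIV-1 was scored from cell growth (soluble formazan) across five concentrations, with parallel uninfected cells. Lack of protection may reflect toxicity.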

For the compound `COc1ccc(CCCNC(=O)Cc2cc(OC)c(OC)cc2CO)cc1OC`, the EC50 is over 200 µM and the IC50 came to 17.8 µM.
Turning to `C[C@@]12C(=O)OC(=O)[C@]1(C)[C@H]1CC[C@@H]2O1`, the EC50 is over 347 µM and the IC50 stood at 4.9 µM.
`O=C(O)c1ccccc1NS(=O)(=O)c1ccc([N+](=O)[O-])cc1`: the outcome was inactive.
As to `Cn1c(=O)sc2cc(C(=S)N3CCOCC3)ccc21`, the EC50 was over 141 µM and the IC50 came out at 64.6 µM.
In the case of `CCOP(=O)(OCC)/C(=C/NC(=S)c1ccncc1)C(=O)OC`, the half-maximal effective concentration (EC50) is 126 µM and the IC50 is 186 µM.
Take `COC(=O)C(=O)C(C(=O)C(=O)Nc1cc(C)ccc1C)c1nc2ccccc2[nH]c1=O` (centres undefined): the EC50 is over 589 µM and the IC50 came out at 275 µM.
In the case of `CC(=O)OCC1OC(NC(=S)Nn2c(-c3ccccc3)nc3ccccc3c2=O)C(OC(C)=O)C(OC(C)=O)C1OC(C)=O` (centres undefined), the EC50 was over 200 µM and the IC50 was over 100 µM.
As to `COc1ccc(NCC(=O)Nn2c(-c3ccccc3)nc3ccccc3c2=O)cc1`, the EC50 was over 200 µM and the IC50 was 17.8 µM.
As for `C[C@@H]1C=C[C@@H]2COC(=O)C2=C[C@@H]1c1ccccc1`, the result was inactive.
For the compound `NC(N)=N/N=C(/CC1OC(=O)c2ccccc21)c1ccc2ccccc2c1` (centres undefined), the EC50 was over 28.2 µM and the IC50 was over 28.2 µM.
As for `Cc1c2cccc-2c(OCCO)cc2c1[nH]c1ccccc12`, the EC50 is over 200 µM and the IC50 stood at 2.88 µM.
Turning to `C=CCNC1=C(C(=O)OCC)C(=O)CO1`, the EC50 is over 1170 µM and the IC50 is over 1170 µM.
As for `CN1C(=O)CNS1(=O)=O`, the result was inactive.
`O=C(NC/C=C/Br)NC1CCNc2ccccc21` (centres undefined): the EC50 was over 200 µM and the IC50 came out at 14.1 µM.
Consider `O=C(NC(=S)NC(=O)c1cc(O)c(O)c(O)c1)c1cc(O)c(O)c(O)c1`, for which the EC50 is over 200 µM and the IC50 was found to be 4.27 µM.
On the same counts, the results for `c1ccc(C2C3=C(CCCC3)Nc3nc4cc5ccccc5cc4n32)cc1` (centres undefined) are over 200 µM and over 200 µM.
As for `O=C(CCc1nnc2s/c(=C\c3ccc(Cl)c(Cl)c3)c(=O)n12)Nc1ccc(Cl)c(Cl)c1`, the EC50 is over 13.2 µM and the IC50 is over 13.2 µM.
`COc1ccc(C(C2=C(C)C(=O)c3ccccc3C2=O)c2ccc(C(C)C)cc(=O)c2O)cc1` (centres undefined): the result was inactive.
Regarding `O=C1CC2SC(COCc3ccccc3)(CCN2Cc2ccccc2)C1` (centres undefined), the outcome was inactive and the IC50 is 41.7 µM.
Regarding `CCOC(=O)c1cn(C)nc1N/C(C)=C\C(=O)c1ccccc1`, the EC50 is over 200 µM and the IC50 came to 75.9 µM.
For the compound `CC(C)NCC(O)c1cc(OCc2ccccc2)c(OCc2ccccc2)cc1NC(=O)CCC(=O)O` (centres undefined), the EC50 was over 200 µM and the IC50 worked out at 1.58 µM.
Take `O=C(N/N=C/c1ccc(Cl)cc1Cl)c1ccccc1SSc1ccccc1C(=O)N/N=C/c1ccc(Cl)cc1Cl`: the EC50 was 38.9 µM and the IC50 was 178 µM.
For `CC1(O)C(=O)N(Cc2ccccc2)c2ccccc21` (centres undefined) the same measures were over 141 µM and over 141 µM.
With `CC1=C(C)CS(=O)N(c2ccccc2)C1` (centres undefined), the EC50 was over 200 µM and the IC50 is 89.1 µM.
In the case of `O=C(CCCNc1nc(-c2ccccc2)cs1)c1cccs1`, the EC50 is over 50.1 µM and the IC50 was over 50.1 µM.
As for `CNC(=S)/C(C#N)=C(\N)N1CCCC1`, the EC50 is over 200 µM and the IC50 is over 200 µM.
Turning to `COc1cc2ccnc3c2c(c1O)-c1ccccc1C3=O`, the outcome was inactive.
For `COc1cc2c(c(OC)c1OC)C(=O)[C@@H](O)[C@H]2NC(N)=O`, the EC50 is over 200 µM and the IC50 was over 200 µM.
Regarding `C=C(CC)C(=O)c1ccc(OCC(=O)O)c(Cl)c1Cl`, the EC50 was over 200 µM, the result was inactive and the IC50 stood at 43.7 µM.
Consider `Nc1ccc(S(=O)(=O)Nc2nccs2)cc1`, for which the EC50 is over 200 µM and the IC50 is over 200 µM.
On to `Cc1ccc(S(=O)(=O)c2c(O)c3ccc(O)c(C)c3oc2=O)cc1`, for which the EC50 is over 200 µM and the IC50 is over 200 µM.
As to `O=CC(O)C(O)C(O)C(O)C(=O)NCCCCCCCCCCCCNC(=O)C(O)C(O)C(O)C(O)C=O` (centres undefined), the EC50 was over 200 µM and the IC50 is over 200 µM.
Turning to `C/C(=N\NC(=S)N1CC2CCC(CC2)C1)c1nccs1`, the EC50 is over 115 µM and the IC50 was found to be 0.363 µM.
As for `Cc1cc(-c2[nH]c(C(=O)O)cc2I)on1`, the EC50 was over 200 µM and the IC50 was over 200 µM.
`O=C1NC2Cc3ccccc3C(C2)O1` (centres undefined): the EC50 was over 200 µM and the IC50 was over 200 µM.
With `CC(C)CC(NC(=O)C(Cc1ccc(O)cc1)NC(=O)C(CO)NC(=O)C(CCC(=O)O)NC(=O)C1CCCN1C(=O)C(CC(C)C)NC(=O)C(C)NC(=O)CNC(=O)C(N)CCC(=O)O)C(=O)NC(Cc1c[nH]c2ccccc12)C(=O)O` (centres undefined) (H-EGALPESYLW-OH; configuration not given here), the outcome was inactive.
For `CCCC/C=C(/C1OC(=O)N2CCC[C@H]2C1(C)C)[Si](C)(C)C` (some centres undefined), the EC50 is over 6.17 µM and the IC50 is over 6.17 µM.
For `CSS(C)(=O)=O`, the EC50 was over 1120 µM and the IC50 is 53.7 µM.
For `Cc1ccc([N+](=O)[O-])cc1NC(=O)C(=O)Cc1nc2ccc(C(=O)c3ccccc3)cc2[nH]c1=O` the same measures were over 275 µM and 110 µM.
Regarding `N#CC12CC(C=O)=C(N)C1(C#N)CC(C=O)=C2N` (centres undefined), the EC50 was over 200 µM and the IC50 was found to be 14.8 µM.
As for `O[C@H]1[C@H]2c3cc4c(cc3CN3CCC(C[C@@H]1O)[C@H]23)OCO4` (some centres undefined), the result was inactive.
Take `CC(=O)OC(OC(C)=O)c1c2ccccc2cc2ccccc12`: the EC50 is over 200 µM and the IC50 is 9.77 µM.
On the same counts, the results for `CSC(SC)=C(C#N)C(=O)Nc1ccc(Cl)cc1` are over 14.8 µM and 5.37 µM.
For `O=c1[nH]/c(=C/c2ccc3c(c2)OCO3)c(=O)[nH]/c1=C/c1ccc2c(c1)OCO2`, the result was inactive.
In the case of `CC(C)OP(=O)(OC(C)C)C([CH2][Sn]([CH3])([CH3])[Cl])P(=O)(c1ccccc1)c1ccccc1` (centres undefined), the EC50 is over 200 µM and the IC50 worked out at 2.88 µM.
Regarding `CCC1OC2C(CC=C(C)C)=C3OC(C)(O)C(C)(CC)C(OC(=O)c4ccccc4)C3=C3OC(=O)C=C1C32` (centres undefined), the EC50 was over 200 µM and the 50% inhibitory concentration (IC50) stood at 18.6 µM.
For `Cc1cc2nc3n(c2cc1C)C(c1c(F)cccc1F)SC3` (centres undefined) the same measures were over 44.7 µM and 20.9 µM.
Turning to `CC(=O)c1cccc(NC2C(N)C(NC(=O)N(C)C)(C(C)O)C(C)(O)C2(O)COC(=O)c2c(C)cccc2O)c1` (centres undefined), the EC50 is over 64.6 µM and the IC50 worked out at 0.0427 µM.
For `CC1=Nc2ccccc2S/C1=C(/C)NNC(=O)C(N)=O`, the EC50 is over 89.1 µM and the IC50 is over 89.1 µM.
With `O=C(COC(=O)c1cccc2c(=O)c3ccccc3[nH]c12)Nc1ccc(Cl)cc1`, the result was inactive.
`O=C1CCC(=O)c2sccc2N1`: the EC50 was over 1380 µM and the IC50 is over 1380 µM.
On to `Cc1cc2cc3ccccc3cc2c(=O)[nH]1`, for which the EC50 is over 200 µM and the IC50 stood at 182 µM.
In the case of `O=C(O)C1c2ccccc2C(C(=O)O)c2ccccc21` (centres undefined), the result was inactive.
`CC(C)(C)C(=CS(=O)/N=C/c1ccccc1)C(C)(C)C` (centres undefined): the EC50 is over 24.5 µM and the IC50 was over 24.5 µM.
For `CC1=C(C)C(N2CCOCC2)CS(=O)(=O)O1` (centres undefined), the EC50 is over 200 µM and the IC50 was over 200 µM.
Take `COCC(C)(C)N=CN1CCc2cc(OC)c(OC)cc2C1`: the EC50 was over 813 µM and the IC50 is over 813 µM.
As to `Cn1c(-c2ccccc2)cc2c3ccsc3c3ccsc3c21`, the EC50 was over 200 µM and the IC50 is 45.7 µM.
Take `CC(C)=CC(Cc1ccccc1)S(=O)(=O)c1nc2ccccc2s1` (centres undefined): the EC50 is over 200 µM and the IC50 came out at 10 µM.
Regarding `COC(=O)C1=CC2CC1C(S(=O)(=O)c1ccccc1)C2S(=O)(=O)c1ccccc1` (centres undefined), the EC50 is over 100 µM and the IC50 was found to be 4.57 µM.
For the compound `CC1(Cl)CC2OC3(Br)C=CC(C)(O)C2(CC1Br)C3(C)C` (centres undefined), the EC50 was over 102 µM and the IC50 is over 102 µM.
With `COc1ccc(C2C3C(=O)C=CC(=O)C3[C@@H]2C)cc1OC` (some centres undefined), the EC50 was over 174 µM and the IC50 was found to be 13.2 µM.
On to `O=[N+]([O-])c1ccc(/C=C/c2csnn2)cc1`, for which the EC50 is over 562 µM and the IC50 came to 229 µM.
`COC(=O)c1ccc[c]([Sb](=[O])([OH])[OH])c1` showed an EC50 of over 200 µM and an IC50 of 91.2 µM.
With `COc1ccccc1S(=O)(=O)Sc1ccccc1[N+](=O)[O-]`, the EC50 is over 81.3 µM and the IC50 was found to be 25.7 µM.
On to `O=S(=O)(O)c1cc(N=Nc2ccc(/C=C/c3ccc(N=Nc4cc(S(=O)(=O)O)c5cccnc5c4O)cc3S(=O)(=O)O)c(S(=O)(=O)O)c2)ccc1/C=C/c1ccc(N=Nc2cc(S(=O)(=O)O)c3cccnc3c2O)cc1S(=O)(=O)O`, for which the EC50 was 0.832 µM and the IC50 came out at 1.95 µM.
On the same counts, the results for `COc1ccc(N/N=C/C2=CC(C)(C)C(C#N)(C#N)C(O)=C2C#N)cc1` are over 200 µM and 28.2 µM.
On the same counts, the results for `CCCCCCCCCC=C(c1cc(Cl)c(OC)c(C(=O)OC)c1)c1cc(Cl)c(OC)c(C(=O)OC)c1` are over 23.4 µM and over 23.4 µM.
`CC(C)C(=O)OCC1CCCN2CCCCC12` (centres undefined): the EC50 was over 200 µM and the IC50 was over 100 µM.
In the case of `NC(=O)Cc1ncn(-c2ccccc2)n1`, the EC50 was over 200 µM and the IC50 is over 200 µM.
As to `COC(=O)c1cc(C)ccc1/C=C1\Cc2cccc(C)c2C1=O`, the EC50 was over 200 µM.
Regarding `CCN(CC)CCOc1ccc(/C=C(\C#N)c2ccc(OC)cc2)cc1`, the EC50 was over 200 µM and the IC50 stood at 2.14 µM.
In the case of `CCN(CC)C1Oc2cc3c(cc2C(c2ccc(OC)cc2)C1C)OCO3` (centres undefined), the EC50 was over 200 µM and the IC50 worked out at 24 µM.

Broadly, the EC50 is the concentration giving half of the maximal effect. A word on the IC50: it is the concentration that gives 50% inhibition. Higher therefore signals a need for much substance.

The values are drawn from PubChem BioAssay AID179 (DTP/NCI, 2004).
